Laboratory results as given in patent publication US20110190269A1, “GAMMA SECRETASE MODULATORS” (priority 2010, published 2011).
Structures can show the parent of a compound that is named as a salt.

Tested on: γ-secretase
Test: Cellular γ-secretase assay (inhibition of Aβ42 secretion)
Format: cell-based
Details: human neuroglioma H4 cells overexpressing human APP, 22 hrs incubation
In short: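 H4 neuroglioma cells overexpressing human APP got a ten-point compound dilution (0.4% DMSO final) for 22 h at 37 °C. Secreted Aβ42 in the supernatant was measured by electrochemiluminescence sandwich immunoassay (capture biotinylated 6E10, detection ruthenylated BAP15). IC50 came from a nonlinear regression fit.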

Compound	EC50 [nM]
COc1cc(Nc2nc3c(-c4ccc(Cl)cc4)cc(C4CC4)cn3n2)ccc1-n1cnc(C)c1 [Example 117, [8-(4-Chloro-phenyl)-6-cyclopropyl-[1,2,4]triazolo[1,5-a]pyridin-2-yl]-[3-methoxy-4-(4-methyl-imidazol-1-yl)-phenyl]-amine]	65
COc1cc(Nc2nc3c(Cl)cc(Cl)cn3n2)ccc1-n1cnc(C)c1 [Example 44, (6,8-Dichloro-[1,2,4]triazolo[1,5-a]pyridin-2-yl)-[3-methoxy-4-(4-methyl-imidazol-1-yl)-phenyl]-amine]	1560
COc1cc(Nc2nc3c(N4CCOCC4)cccn3n2)ccc1-n1cnc(C)c1 [Example 101, N-(3-Methoxy-4-(4-methyl-1H-imidazol-1-yl)phenyl)-8-morpholino-[1,2,4]triazolo[1,5-a]pyridin-2-amine]	227
COc1cc(Nc2nc3c(-c4cccc(CN)c4)cc(C)cn3n2)ccc1-n1cnc(C)c1 [Example 97, 8-(3-(Aminomethyl)phenyl)-N-(3-methoxy-4-(4-methyl-1H-imidazol-1-yl)phenyl)-6-methyl-[1,2,4]triazolo[1,5-a]pyridin-2-amine dihydrochloride]	470
COc1cc(Nc2nc3c(-c4ccc(N5CCOCC5)cc4)cc(C)cn3n2)ccc1-n1cnc(C)c1 [Example 82, N-(3-Methoxy-4-(4-methyl-1H-imidazol-1-yl)phenyl)-6-methyl-8-(4-morpholinophenyl)-[1,2,4]triazolo[1,5-a]pyridin-2-amine]	242
COc1cc(Nc2nc3n(n2)C(c2ccc(F)cc2)CN(S(C)(=O)=O)C3)ccc1-n1cnc(C)c1 (centres unmarked) [Example 57, 5-(4-Fluorophenyl)-N-(3-methoxy-4-(4-methyl-1H-imidazol-1-yl)phenyl)-7-(methylsulfonyl)-5,6,7,8-tetrahydro-[1,2,4]triazolo[1,5-a]pyrazin-2-amine]	431
COc1cc(Nc2nc3nccc(-c4ccncc4)n3n2)ccc1-n1cnc(C)c1 [Example 68, N-(3-Methoxy-4-(4-methyl-1H-imidazol-1-yl)phenyl)-7-(pyridin-4-yl)-[1,2,4]triazolo[1,5-a]pyrimidin-2-amine]	1170
COc1cc(Nc2nc3c(-c4ccc(F)cc4)cc(C4CC4)cn3n2)ccc1-n1cnc(C)c1 [Example 118, [6-Cyclopropyl-8-(4-fluoro-phenyl)-[1,2,4]triazolo[1,5-a]pyridin-2-yl]-[3-methoxy-4-(4-methyl-imidazol-1-yl)-phenyl]-amine]	72
COc1cc(Nc2nc3c(C)cnc(N4CCCC4)n3n2)ccc1-n1cnc(C)c1 [Example 60, [3-Methoxy-4-(4-methyl-imidazol-1-yl)-phenyl]-(8-methyl-5-pyrrolidin-1-yl-[1,2,4]triazolo[1,5-c]pyrimidin-2-yl)-amine]	672
COc1cc(Nc2nc3cccc(-c4ccc(F)cc4)n3n2)ccc1-c1ccnc(C)c1 [Example 54, 5-(4-Fluorophenyl)-N-(3-methoxy-4-(2-methylpyridin-4-yl)phenyl)-[1,2,4]triazolo[1,5-a]pyridin-2-amine]	110
COc1cc(Nc2nc3c(-c4ccc(F)cc4F)cccn3n2)ccc1-n1cnc(C)c1 [Example 132, 8-(2,4-difluorophenyl)-N-(3-methoxy-4-(4-methyl-1H-imidazol-1-yl)phenyl)-[1,2,4]triazolo[1,5-a]pyridin-2-amine]	137
COc1cc(Nc2nc3ncc(C#N)c(-c4cccc(C)c4)n3n2)ccc1-n1cnc(C)c1 [Example 40, 2-[3-Methoxy-4-(4-methyl-imidazol-1-yl)-phenylamino]-7-m-tolyl-[1,2,4]triazolo[1,5-a]pyrimidine-6-carbonitrile]	417
COc1cc(Nc2nc3c(Cl)cc(C(F)(F)F)cn3n2)ccc1-n1cnc(C)c1 [Example 48, (8-Chloro-6-trifluoromethyl-[1,2,4]triazolo[1,5-a]pyridin-2-yl)-[3-methoxy-4-(4-methyl-imidazol-1-yl)-phenyl]-amine]	4510
COc1cc(Nc2nc3c(C4=CCOCC4)cccn3n2)ccc1-n1cnc(C)c1 [Example 149, [8-(3,6-Dihydro-2H-pyran-4-yl)-[1,2,4]triazolo[1,5-a]pyridin-2-yl]-[3-methoxy-4-(4-methyl-imidazol-1-yl)-phenyl]-amine]	370
COc1ccc(-c2ccccc2)n2nc(Nc3ccc(-n4cnc(C)c4)c(C#N)c3)nc12 [Example 5, 5-(8-Methoxy-5-phenyl-[1,2,4]triazolo[1,5-a]pyridin-2-ylamino)-2-(4-methyl-imidazol-1-yl)-benzonitrile]	90
COc1cc(F)ccc1-c1cc(C)cn2nc(Nc3ccc(-n4cnc(C)c4)c(OC)c3)nc12 [Example 64, [8-(4-Fluoro-2-methoxy-phenyl)-6-methyl-[1,2,4]triazolo[1,5-a]pyridin-2-yl]-[3-methoxy-4-(4-methyl-imidazol-1-yl)-phenyl]-amine]	73
COc1cc(Nc2nc3c(-c4ccc(F)c(F)c4)cc(C(F)(F)F)cn3n2)ccc1-n1cnc(C)c1 [Example 80, 8-(3,4-Difluorophenyl)-N-(3-methoxy-4-(4-methyl-1H-imidazol-1-yl)phenyl)-6-(trifluoromethyl)-[1,2,4]triazolo[1,5-a]pyridin-2-amine]	121
